Source: patent publication US10364415B2, “1,4-dioxane-degrading bacteria culture method, medium, and 1,4-dioxane treatment method using 1,4-dioxane-degrading bacteria” (TAISEI CORPORATION, priority 2014, dated 2019)

What was measured:
[1] = test system: strain CB1190, strain D11, and strain D17; experiment: Proliferation of 1,4-dioxane-degrading bacteria in the presence of diethylene glycol (Example 1); type: cell-based; details: 28° C., nine days
Procedure: Strain CB1190, strain D11, and strain D17 were used as 1,4-dioxane-degrading bacteria. Each degradation bacterium was cultured for ten days using a CGY medium (casitone: 5 g/L, glycerin: 5 g/L, yeast extract: 1 g/L) containing 1,4-dioxane at a concentration of 500 mg/L. After cultivation, the bacterial cells were harvested and washed with a centrifugal separator, and then mixed with 20 mL of physiological saline, in such a manner that an inoculum suspension was obtained. It should be noted that an inoculum suspension (OD600: approximately 10) which was turbidity-standardized using a spectrophotometer was used as the inoculum suspension. […]
The bacterial cells in the culture solution were collected as […] by suction filtration after the culture was finished. Then, the […] was dried at 105° C. overnight, and the weight of the bacterial cells was measured, in such a manner that the bacterial cell concentration (mg-dry cell/L) was obtained. Proliferation of the bacterial cells was evaluated by Δ bacterial cell concentration obtained by subtracting the initial bacterial cell concentration from the bacterial cell concentration on the ninth day of culture. […]

[2] = test system: strain D17; experiment: Bacterial cell concentration measurement at different diethylene glycol concentrations (Examples 3 to 7); type: cell-based, Pseudonocardia sp. D17; details: diethylene glycol increased from 1 g/L to 10 g/L, seven days
Procedure: 100 mL of a liquid medium (medium composition: K2HPO4: 1 g/L, (NH4)2SO4: 1 g/L, NaCl: 50 mg/L, MgSO4.7H2O: 200 mg/L, FeCl3: 10 mg/L, CaCl2: 50 mg/L, pH: 7.3) containing diethylene glycol of 1 g/L was added to an Erlenmeyer flask equipped with baffles with a volume of 300 mL. Next, strain D17 which was inoculated in the MGY medium in advance was cultured (initial bacterial cell concentration: 111 mg-dry cell/L) and was subjected to the rotary shaking culture at 28° C. and 120 rpm for seven days.
Degradation bacteria were cultured in the same manner as in Example 3 except that the concentration of diethylene glycol in the liquid medium was set to be 5 g/L. […]
The bacterial cells in the culture solution were collected as a filter residue through suction filtration after the cultivation was finished and the bacterial cells were dried at 105° C. overnight, and then the weight of the collected bacterial cells was measured. The bacterial cell concentration (mg-dry cell/L) was obtained from the value of the measured bacterial cell weight. […] The proliferation property of the bacterial cells was evaluated by Δ bacterial cell concentration which was obtained by subtracting the initial bacterial cell concentration from the bacterial cell concentration on the seventh day of culturing.

[3] = test system: SDIMO-bearing bacteria; experiment: PCR detection of SDIMO gene in contaminated soil cultured with diethylene glycol (Example 9); type: cell-based; details: seven contaminated soil samples, diethylene glycol 20 g/L, six days
Procedure: The proliferation of SDIMO-bearing bacteria by culturing in a medium supplemented with diethylene glycol was investigated in seven types of soil collected from different places at sites contaminated with 1,4-dioxane. It should be noted that the proliferation of SDIMO-bearing bacteria was evaluated by an increase in PCR amplification products of about 420 bp derived from a SDIMO-encoding gene (a SDIMO gene).
The soil with a wet weight of 10 g was added to an Erlenmeyer flask of 300 ml in which the liquid medium of 90 ml (medium composition: K2HPO4: 1 g/L, (NH4)2SO4: 1 g/L, NaCl: 50 mg/L, MgSO4.7H2O: 200 mg/L, FeCl3: 10 mg/L, CaCl2: 50 mg/L, pH: 7.0) was placed. Then, diethylene glycol was added such that the final concentration became 20 g/L and the rotary shaking culture was carried out at 28° C. and 120 rpm.
The samples were collected immediately after diethylene glycol was added and after six days by 5 ml, respectively, and a supernatant was removed by centrifugation (10,000×g, 4° C., 5 min), and then DNA was recovered from the soil of 0.5 g (of wet weight). For DNA extraction, a soil DNA extraction kit (manufactured by Nippon Gene Co., Ltd., product name: ISOIL for Beads Beating) was used and the extracted DNA was purified using a DNA fragment purification kit (Toyobo Co., Ltd., product name: MagExtractor-PCR & Gel Clean up-). […]

## OCCOCCO [diethylene glycol]
[1]; diethylene glycol 1 g/L as carbon source, all three degradation bacteria
  proliferation properties (Δ bacterial cell concentration): could grow using diethylene glycol as a carbon source
[1]; diethylene glycol 1 g/L, strain D17
  proliferation properties (Δ bacterial cell concentration): extremely high proliferation properties
[2]
  bacterial cell concentration: increased
[3]
  PCR amplification product of about 420 bp (SDIMO gene) before and after culturing: preferentially proliferated SDIMO-bearing bacteria
